Test results taken from patent publication US20240335431A1, “1-H-PYRROLO[2,3-c]PYRIDINE COMPOUNDS” (Acerta Pharma B.V., priority 2023, published 2024).

Key:
hERG = hERG (Homo sapiens (Human), UniProt Q12809); assay: hERG assay 1 (standard), SyncroPatch 384PE; type: cell-based; settings: CHO cells, room temperature, up to 40 uM
How it was run: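 Automated patch clamp on hERG-expressing CHO-K1 cells at room temperature, +60/−40 mV protocol every 15 s. Six-point cumulative concentrations 139 nM to 40 uM (0.33% DMSO final); IC50 from one-site fit of % inhibition. Wells required ≥30 MegaOhm seal, current >0.2 nA, Z prime >0.4.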

[1] = Human liver microsomes (HLMs) intrinsic clearance assay; type: in vitro ADME; settings: human, microsomes, pH 7.4, HLM CLint
[2] = Human hepatocyte intrinsic clearance assay; type: in vitro ADME; settings: human hepatocytes
How it was run: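 Pooled 10-donor cryopreserved human hepatocytes in suspension (0.25×10^6 cells in 0.25 mL) incubated with test compound at […], 37° C. Samples taken 0.5–120 min and quenched in acetonitrile, parent remaining measured by LC-MS/MS. CLint ([…]) derived from slope of ln % remaining vs time.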

Chain of hERG (Q12809 whole entry): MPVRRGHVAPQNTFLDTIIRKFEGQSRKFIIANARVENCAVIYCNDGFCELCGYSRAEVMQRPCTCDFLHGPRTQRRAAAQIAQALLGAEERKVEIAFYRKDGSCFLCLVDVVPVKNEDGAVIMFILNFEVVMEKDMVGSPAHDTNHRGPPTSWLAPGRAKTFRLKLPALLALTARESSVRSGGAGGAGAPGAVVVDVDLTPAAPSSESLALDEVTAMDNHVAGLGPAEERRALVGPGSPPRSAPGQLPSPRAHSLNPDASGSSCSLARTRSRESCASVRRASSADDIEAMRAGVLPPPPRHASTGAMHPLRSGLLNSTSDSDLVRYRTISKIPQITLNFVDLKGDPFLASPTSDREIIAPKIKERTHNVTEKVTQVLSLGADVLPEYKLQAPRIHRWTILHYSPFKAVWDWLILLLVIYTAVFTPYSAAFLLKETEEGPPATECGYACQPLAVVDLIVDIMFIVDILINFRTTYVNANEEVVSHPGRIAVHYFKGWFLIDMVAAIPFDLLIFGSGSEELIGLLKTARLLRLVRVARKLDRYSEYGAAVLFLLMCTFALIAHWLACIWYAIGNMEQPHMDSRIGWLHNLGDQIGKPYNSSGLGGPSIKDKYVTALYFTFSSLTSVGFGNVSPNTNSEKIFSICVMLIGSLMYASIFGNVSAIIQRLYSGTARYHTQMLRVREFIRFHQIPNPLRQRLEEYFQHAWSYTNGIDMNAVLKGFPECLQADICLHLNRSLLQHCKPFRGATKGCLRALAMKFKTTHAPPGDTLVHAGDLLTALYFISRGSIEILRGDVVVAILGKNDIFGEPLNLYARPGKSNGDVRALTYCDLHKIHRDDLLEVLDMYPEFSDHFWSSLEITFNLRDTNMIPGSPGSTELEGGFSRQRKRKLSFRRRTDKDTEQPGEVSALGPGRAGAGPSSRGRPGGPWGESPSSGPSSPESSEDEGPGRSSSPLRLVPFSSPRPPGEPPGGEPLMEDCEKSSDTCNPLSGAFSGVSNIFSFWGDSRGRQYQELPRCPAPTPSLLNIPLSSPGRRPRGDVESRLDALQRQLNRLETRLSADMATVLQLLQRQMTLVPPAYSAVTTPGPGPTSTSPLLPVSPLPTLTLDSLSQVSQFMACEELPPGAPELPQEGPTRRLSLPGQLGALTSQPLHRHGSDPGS

| microsomal CLint at 1 µM [1] [µL/min/mg] | HH CLint [2] [μl/min/1E6] | SMILES | IC50 (hERG) [µM] |
| --- | --- | --- | --- |
| 219 | 2.5 | CC(C)c1ncsc1-c1cc(F)ccc1-n1cc(C(=O)C2CCN(C(=O)[C@H]3N[C@@H]4CC[C@H]3C4)CC2)c2ccncc21.O=CO [Example 42, (1-((1R,3S,4S)-2-Azabicyclo[2.2.1]heptane-3-carbonyl)piperidin-4-yl)(1-(4-fluoro-2-(4-isopropylthiazol-5-yl)phenyl)-1H-pyrrolo[2,3-c]pyridin-3-yl)methanone 1·formic acid] | > 40 |
| 50 | <1.0 | CCN(C(=O)c1cc(F)ccc1-n1c(C)c(C(=O)C2CCN(C(=O)[C@H]3N[C@@H]4CC[C@H]3C4)CC2)c2ccncc21)C(C)C [Example 46, 2-(3-(1-((1R,3S,4S)-2-Azabicyclo[2.2.1]heptane-3-carbonyl)piperidine-4-carbonyl)-2-methyl-1H-pyrrolo[2,3-c]pyridin-1-yl)-N-ethyl-5-fluoro-N-isopropylbenzamide] | > 40 |
| 54 | 2.1 | CCN(C(=O)c1cc(F)ccc1-n1c(C)c(C(=O)C2CCN(C(=O)[C@H]3NC[C@@H]4C[C@@H]43)CC2)c2ccncc21)C(C)C [Example 47, 2-(3-(1-((1S,2S,5R)-3-Azabicyclo[3.1.0]hexane-2-carbonyl)piperidine-4-carbonyl)-2-methyl-1H-pyrrolo[2,3-c]pyridin-1-yl)-N-ethyl-5-fluoro-N-isopropylbenzamide] | > 40 |
| 73 | 6.4 | Cc1c(C(=O)C2CCN(C(=O)[C@H]3NC[C@@H]4C[C@@H]43)CC2)c2ccncc2n1-c1ccc(F)cc1-c1cnccc1C(C)C [Example 54, (1-((1S,2S,5R)-3-Azabicyclo[3.1.0]hexane-2-carbonyl)piperidin-4-yl)(1-(4-fluoro-2-(4-isopropylpyridin-3-yl)phenyl)-2-methyl-1H-pyrrolo[2,3-c]pyridin-3-yl)methanone] | 13.1 |
